Experimental data published in US5770563A, “Heparin- and sulfatide binding peptides from the type I repeats of human thrombospondin and conjugates thereof” (The United States of America as represented by the …, priority 1995, dated 1998).
pIC50: −log10 of the molar value. Where two headings read alike, the source gives them in different places. Square brackets hold non-standard residues; d marks the D form. Peptide text beside a SMILES is read from it. Mpa = O=C(O)CCS

Assays:
[1] = target: basic fibroblast growth factor (FGF-2) binding to heparin; assay: Inhibition of 125I-bFGF binding to heparin-BSA conjugate
Procedure: Binding of ^125 I-bFGF to heparin was determined using an immobilized heparin-BSA conjugate as previously described (Guo, et al. (1992) Proc. Nat'l Acad. Sci. 89:3040-3044). ^125 I-bFGF, prepared as described by Neufeld, et al, (1985), J. Biol. Chem. 260:13860-13868, was added described above, and incubated for 2 hours at 25° C. Bound radioactivity was determined after washing and cutting the wells from the plate. FIGS. 40A, B and C show the inhibition of ^125 I-bFGF binding to heparin by a number of TSP peptide analogs.

[2] = test system: laminin binding to heparin; assay: Inhibition of 125I-laminin binding to heparin-BSA; set-up: species or system mouse; details: for pIC50: Table 2, free peptide
Procedure: (§1) The peptides were tested as inhibitors of laminin, thrombospondin or apolipoprotein E binding to a heparin-bovine serum albumen conjugate or to a sulfatide in a solid phase assay essentially following the procedure described in Zabrenetzky et al., Cancer Res., Vol. 50, pages 5937-5942 (1990). Sulfatide (0.2 μg/well for thrombospondin binding, 0.6 μg/well for laminin binding) was immobilized in a mixture of 50 ng of phosphatidyl choline, and 30 ng of cholesterol on polyvinyl chloride microtiter plates. Heparin-BSA (0.2 μg/well) was absorbed onto polyvinyl chloride microtiter plate wells by incubation of 50 μl of Dulbecco's PBS for 2 h at 37°. The wells were emptied and filled with 50 mM tris, pH 7.8 containing 150 mM NaCl, 1 mM CaCl2, 0.025% NaN3, and 1% BSA. After 30 minutes, the wells were emptied and 30 μl of various concentrations of potential inhibitory peptides diluted in the same buffer or buffer alone and 30 μl of ^125 I-labeled laminin, thrombospondin or apolipoprotein E (0.2 μg/ml) were added to each well. After 3 hours at 4°, the wells were washed 6 times with 0.15M NaCl, cut from the plate and the bound radioactivity counted. FIGS. 1A-B and 2A-B show the level of thrombospondin binding to sulfatide and heparin-BSA, respectively, in the presence of increasing concetrations of the peptides listed. FIGS. 3 and 4A-B show the level of laminin binding to sulfatide and heparin-BSA, respectively, in the presence of increasing concentrations of the listed peptides.

[3] = test system: thrombospondin binding to heparin; assay: Inhibition of 125I-thrombospondin binding to immobilized heparin-BSA; set-up: species or system human; details: for inhibition of thrombospondin binding to heparin, in words: free peptide
Procedure: as §1
Microtiter plate wells were coated with heparin-BSA. Heparin-BSA (0.2 μg/well) was adsorbed by incubation in 50 μl of Dulbecco's PBS for 2 h at 370. The wells were emptied, filled with tris-BSA, and incubated for 30 to 60 minutes. The buffer was removed, and labelled thrombospondin was added and incubated in the wells for 3 h at 40. The wells were emptied and washed 4 times with saline. The bottoms of the wells were cut from the plate and counted to quantify thrombospondin binding. Inhibition of thrombospondin binding was determined using peptides diluted in 30 μl of 50 mM tris buffer, pH 7.8, containing 110 mM NaCl, 1 mM CaCl2, 0.025% NaN3, and 1% BSA or buffer alone and 30 μl of ^125 I-labeled TSP (0.2 μg/ml).

[4] = test system: MDA MB435 breast carcinoma cells; assay: MDA MB435 human breast carcinoma cell proliferation; format: cell-based
Procedure: Human breast carcinoma cells MDA MB435 (American Type Culture Collection) were grown in RPMI 1640 medium containing 10% fetal calf serum. Proliferation was determined as described in FIG. 18 and 44A, B and C.
Human breast carcinoma cells MDA MB435 (American Type Culture Collection) were grown in RPMI 1640 medium containing 10% fetal calf serum. Proliferation was determined in the presence of 0.5% fetal calf serum and bFGF as described in FIG. 19.

[5] = target: thrombospondin binding to sulfatide; assay: Inhibition of 125I-thrombospondin binding to sulfatide; set-up: species or system human; details: Table 1, free peptide
Procedure: as §1

[6] = target: apolipoprotein E binding to heparin; assay: Inhibition of 125I-apolipoprotein E binding to heparin-BSA; details: Table 2, free peptide; read-out: IC50 Apo E Binding to Heparin
Procedure: as §1

[7] = target: laminin binding to sulfatide; assay: Inhibition of 125I-laminin binding to sulfatide; set-up: species or system mouse; details: Table 2, free peptide
Procedure: as §1

[8] = L-forward peptides, read-out: IC50 Inhibitory Activity
[9] = Table 1, free peptide, read-out: IC50 Heparin Binding, inhibition of 125I-thrombospondin binding
[10] = retro-inverso peptides, read-out: IC50 for Inhibition of Binding
[11] = retro-inverso peptides, free, read-out: IC50 Inhibitory Activity, Free Peptide

Row | pIC50 [5] | pIC50 [2] | pIC50 [6] | pIC50 [3, 9] | pIC50 [7] | pIC50 [1, 10] | pIC50 [3, 11] | Compound | also measured
1 |  |  |  |  |  | 6.66 | 7.52 | CC(=O)N[C@H](CS)C(=O)N[C@H](CO)C(=O)N[C@H](CO)C(=O)N[C@H](Cc1c[nH]c2ccccc12)C(=O)N1CCC[C@@H]1C(=O)N[C@H](CO)C(=O)N[C@H](Cc1c[nH]c2ccccc12)C(=O)N[C@H](Cc1c[nH]cn1)C(=O)N[C@H](CO)C(=O)N[C@H](Cc1c[nH]c2ccccc12)C(=O)NCC(=O)NCC(=O)N[C@H](C)C(=O)N[C@H](CCC(N)=O)C(=O)N[C@H](CCCCN)C(=O)N[C@H](C)C(=O)N[C@H](CCCNC(=N)N)C(=O)N[C@H](CCCCN)C(N)=O [Peptide 476, ri-amKRAKQAGGWSHWSPWSSCac] (Ac-[dC][dS][dS][dW][dP][dS][dW][dH][dS][dW]GG[dA][dQ][dK][dA][dR][dK]-NH2) | 
2 |  |  |  |  |  | 5.72 | 6.82 | CC(=O)N[C@H](CS)C(=O)N[C@H](CO)C(=O)N[C@H](CO)C(=O)N[C@H](Cc1c[nH]c2ccccc12)C(=O)N1CCC[C@@H]1C(=O)N[C@H](CO)C(=O)N[C@H](Cc1c[nH]c2ccccc12)C(=O)N[C@H](Cc1c[nH]cn1)C(=O)N[C@H](CO)C(=O)N[C@H](Cc1c[nH]c2ccccc12)C(=O)NCC(=O)NCC(=O)N[C@H](C)C(=O)N[C@H](C)C(=O)N[C@H](CCCCN)C(=O)N[C@H](C)C(=O)N[C@H](CCCNC(=N)N)C(=O)N[C@H](CCCCN)C(N)=O [Peptide 473, ri-amKRAKAAGGWSHWSPWSSCac] (Ac-[dC][dS][dS][dW][dP][dS][dW][dH][dS][dW]GG[dA][dA][dK][dA][dR][dK]-NH2) | 
3 |  |  |  |  |  | < 4.70 | 5.00 | CC(=O)N[C@H](CS)C(=O)N[C@H](CO)C(=O)N[C@H](CO)C(=O)N[C@H](C)C(=O)N1CCC[C@@H]1C(=O)N[C@H](CO)C(=O)N[C@H](C)C(=O)N[C@H](Cc1c[nH]cn1)C(=O)N[C@H](CO)C(=O)N[C@H](C)C(=O)NCC(=O)NCC(=O)N[C@H](CC(=O)O)C(=O)N[C@H](CCC(N)=O)C(=O)N[C@H](CCCCN)C(=O)N[C@H](Cc1ccccc1)C(=O)N[C@H](CCCNC(=N)N)C(=O)N[C@H](CCCCN)C(N)=O [Peptide 475, ri-amKRFKQDGGASHASPASSCac] (Ac-[dC][dS][dS][dA][dP][dS][dA][dH][dS][dA]GG[dD][dQ][dK][dF][dR][dK]-NH2) | 
4 |  |  |  |  |  | 6.55 | 7.46 | C[C@@H](NC(=O)CCS)C(=O)N[C@H](C)C(=O)N[C@H](CO)C(=O)N[C@H](Cc1c[nH]c2ccccc12)C(=O)N[C@H](Cc1c[nH]cn1)C(=O)N[C@H](CO)C(=O)N[C@H](Cc1c[nH]c2ccccc12)C(=O)NCC(=O)N[C@H](C)C(=O)N[C@H](CCC(N)=O)C(=O)N[C@H](CCCCN)C(=O)N[C@H](C)C(=O)N[C@H](CCCNC(=N)N)C(=O)N[C@H](CCCCN)C(N)=O [Peptide 525, ri-amKRAKQAGWSHWSAAtc] ([Mpa][dA][dA][dS][dW][dH][dS][dW]G[dA][dQ][dK][dA][dR][dK]-NH2) | 

Continued, compound first:

Row | Compound | pIC50 [5] | pIC50 [2] | pIC50 [6] | pIC50 [3, 9] | pIC50 [7] | pIC50 [1, 10] | pIC50 [3, 11] | also measured
5 | NCC(=O)NCC(=O)N[C@@H](Cc1c[nH]c2ccccc12)C(=O)N[C@@H](CO)C(=O)N[C@@H](Cc1c[nH]cn1)C(=O)N[C@@H](Cc1c[nH]c2ccccc12)C(=O)N[C@@H](CO)C(=O)N1CCC[C@H]1C(=O)N[C@@H](Cc1c[nH]c2ccccc12)C(=O)N[C@@H](CO)C(=O)N[C@@H](CO)C(=O)O [Peptide 256, GGWSHWSPWSS] (H-GGWSHWSPWSS-OH) |  |  |  |  |  |  |  | pIC50 [1, 8]: < 4.40; inhibition of laminin binding, in words ([2]; free peptide): increased activity; inhibition of thrombospondin binding to heparin, in words [3]: decreased activity
6 | KRFKQDGGWSHWSPWSSC [Peptide 364] |  |  |  |  |  |  |  | inhibition of MDA435 proliferation, in words ([4]; FICOLL conjugate): strongly inhibited proliferation; fold less active than native thrombospondin ([4]; from dose response curves, 0.5% fetal calf serum and bFGF): approximately 10 fold; activity relative to native thrombospondin on a subunit molar basis ([4]; subunit molar basis): about three-fold less active
7 | CC(=O)N[C@@H](CCCCN)C(=O)N[C@@H](CCCNC(=N)N)C(=O)N[C@@H](C)C(=O)N[C@@H](CCCCN)C(=O)N[C@@H](CCC(N)=O)C(=O)N[C@@H](C)C(=O)NCC(=O)NCC(=O)N[C@@H](Cc1c[nH]c2ccccc12)C(=O)N[C@@H](CO)C(=O)N[C@@H](Cc1c[nH]cn1)C(=O)N[C@@H](Cc1c[nH]c2ccccc12)C(=O)N[C@@H](C)C(=O)N[C@@H](C)C(=O)N[C@@H](CS)C(N)=O [acKRAKQAGGWSHWAACam] (Ac-KRAKQAGGWSHWAAC-NH2) |  |  |  |  |  |  |  | pIC50 [1, 8]: 6.39; pIC50 ([3]; L-forward peptides, free, read-out: IC50 Inhibitory Activity, Free Peptide): 7.35
8 | C[C@H](NC(=O)[C@H](Cc1c[nH]cn1)NC(=O)[C@@H](N)CO)C(=O)N[C@@H](CO)C(=O)N1CCC[C@H]1C(=O)N[C@@H](C)C(=O)N[C@@H](CO)C(=O)N[C@@H](CO)C(=O)O [Peptide 244, SHASPASS] (H-SHASPASS-OH) | < 3.70 | < 3.70 | < 3.70 | < 3.70 |  |  |  | fold less active than the natural sequence SHWSPWSS ([3]; Trp replaced by Ala): more than 100 fold
9 | N[C@@H](CO)C(=O)N[C@@H](Cc1c[nH]cn1)C(=O)N[C@@H](Cc1c[nH]c2ccccc12)C(=O)N[C@@H](CO)C(=O)N1CCC[C@H]1C(=O)N[C@@H](Cc1c[nH]c2ccccc12)C(=O)N[C@@H](CO)C(=O)N[C@@H](CO)C(=O)O [Peptide 239, SHWSPWSS] (H-SHWSPWSS-OH) | 5.00 | 4.96 | 3.60 | 5.28 | 4.92 |  |  | inhibition of thrombospondin binding to heparin, in words [3]: more active than the intact dodecapeptide
10 | N[C@@H](Cc1c[nH]c2ccccc12)C(=O)N[C@@H](CO)C(=O)N1CCC[C@H]1C(=O)N[C@@H](Cc1c[nH]c2ccccc12)C(=O)N[C@@H](CO)C(=O)N[C@@H](CO)C(=O)N[C@@H](CS)C(=O)N[C@@H](CO)C(=O)O [Peptide 240, WSPWSSCS] (H-WSPWSSCS-OH) | 4.00 | 4.00 | 3.82 | 4.18 | 4.00 |  |  | 
11 | CC[C@H](C)[C@H](NC(=O)[C@H](CC(=O)O)NC(=O)[C@H](Cc1c[nH]c2ccccc12)NC(=O)[C@@H]1CCCN1C(=O)[C@H](CO)NC(=O)[C@H](Cc1c[nH]c2ccccc12)NC(=O)[C@@H]1CCCN1C(=O)CN)C(=O)N[C@@H](CS)C(=O)N[C@@H](CO)C(=O)N[C@H](C(=O)N[C@H](C(=O)O)[C@@H](C)O)C(C)C [Peptide 186, GPWSPWDICSVT] (H-GPWSPWDICSVT-OH) | 4.57 | 4.82 | 4.28 | 5.07 | 4.46 |  |  | 
12 | CC(C)[C@H](NC(=O)[C@H](CO)NC(=O)[C@H](CS)NC(=O)[C@H](CO)NC(=O)[C@H](CO)NC(=O)[C@H](Cc1c[nH]c2ccccc12)NC(=O)[C@@H]1CCCN1C(=O)[C@H](CO)NC(=O)[C@@H](N)Cc1c[nH]c2ccccc12)C(=O)N[C@H](C(=O)O)[C@@H](C)O [Peptide 241, WSPWSSCSVT] (H-WSPWSSCSVT-OH) | 4.47 | 4.47 | 3.74 | 4.46 | 4.30 |  |  | 
